In BindingDB's records for doi:10.1016/j.bmc.2009.08.051 (Kyoto Prefectural University, 2009):

What was measured:
DNA polymerase = DNA polymerase (Bos taurus, UniProt A0AAA9TD94); assay: DNA Polymerase Assay; conditions: pH 7.5; 37 °C
Method: (§1) For the DNA polymerase reaction, the dehydroaltenusin derivative was dissolved in dimethyl sulfoxide (DMSO) at various concentrations and sonicated for 30 s. Four microlitres of each sonicated sample were mixed with 16 uL of enzyme (final 0.05 units) in reaction buffer, and kept at 0 deg C for 10 min. These inhibitor-enzyme mixtures were added to 16 uL of each enzyme standard reaction mixture containing DNA template-primer and nucleotide, and incubated at 37 deg C for 60 min. Activity without the inhibitor was considered 100%, and the remaining activity at each concentration of the inhibitor was determined relative to this value. One unit of pol activity was defined as the amount of enzyme that catalyzed the incorporation of 1 nmol of dNTP (i.e., dTTP) into synthetic DNA template-primer in 60 min at 37 deg C under the normal reaction conditions.

DNA polymerase beta = DNA polymerase beta (Rattus norvegicus, UniProt P06766); assay: DNA Polymerase Assay; conditions: pH 7.5; 37 °C
Method: as §1

IC50 (DNA polymerase beta)	SMILES	IC50 (DNA polymerase)
126 µM	CC12CC(=O)C(=O)C=C1c1cc(O)cc(O)c1C(=O)O2 (stereo not given) [desmethyldehydroaltenusin, 2]	890 nM
> 200 µM	CC12C=CC(=O)C=C1c1cccc(O)c1C(=O)O2 (stereo not given) [dehydroaltenusin derivative, 32]	> 200000 nM
89 µM	CC12CC(=O)C(=O)C=C1c1cccc(O)c1C(=O)O2 (stereo not given) [dehydroaltenusin derivative, 20]	240 nM
24 µM	CCCCCCOc1cc(O)c2c(c1)C1=CC(=O)C(=O)CC1(C)OC2=O (stereo not given) [dehydroaltenusin derivative, 15]	90 nM
64 µM	COc1cc(O)c2c(c1)C1=CC(=O)C(=O)CC1(C)OC2=O (stereo not given) [dehydroaltenusin]	680 nM
11 µM	CCCCCCCCCCCCOc1cc(O)c2c(c1)C1=CC(=O)C(=O)CC1(C)OC2=O (stereo not given) [dehydroaltenusin derivative, 16]	60 nM
35 µM	CCCOc1cc(O)c2c(c1)C1=CC(=O)C(=O)CC1(C)OC2=O (stereo not given) [dehydroaltenusin derivative, 14]	180 nM
> 200 µM	COc1cc(O)c2c(c1)C1=CC(=O)C=CC1(C)OC2=O (stereo not given) [dehydroaltenusin derivative, 31]	> 200000 nM

SMILES	IC50 (DNA polymerase beta)	IC50 (DNA polymerase)
COc1cc(O)c2c(=O)oc3cc(O)c(O)cc3c2c1 [dehydroaltenusin derivative, 26]	> 200 µM	> 200000 nM
COc1cc(O)c2c(=O)oc3cc(OCc4ccccc4)c(OCc4ccccc4)cc3c2c1 [dehydroaltenusin derivative, 25]	> 200 µM	> 200000 nM
